{"source": "patent US9497963B2", "about": "“Methods and compositions for control of gypsy moth, Lymantria dispar” (Simon Fraser University, priority 2008, dated 2016)", "key": {"[1]": {"system": "male gypsy moth antenna response to odorants other than (+)-1", "experiment": "Long-term inhibition of responses to other pheromone and host plant odorants, EAG (Example 8, first objective)", "design": "species or system Lymantria dispar", "details": "antagonist 100 μg", "experimental": "To determine whether the long-term inhibitory effects of 3c{2,3} and DEET are specific to (+)-1 or also apply to other odorants, compound 3c{2,3} and DEET were tested further with other odorants: (−)-1, racemic 1, dispar alkene, methyl eugenol and 1-hexanol.\nThese included (−)-1, racemic 1, dispar alkene (the alkene corresponding to the carbon framework of 1), methyl eugenol (a characteristic oak wood odorant) and 1-hexanol (a green leaf volatile, shown previously to be detected by gypsy moth antennae). For the pure odorant puffs, (−)-1 and racemic 1 were administered at 100 ng/cartridge, the alkene, methyl eugenol was administered at 1 μg/cartridge and 1-hexanol was administered at 100 μg/cartridge. The antagonists were both administered at 100 μg/cartridge, mixed with the appropriate dose of the odorant. The puff order was: i) air, ii) pure odorant, iii) odorant+antagonist, iv) pure odorant. All puffs were corrected for the air response as in Eq. 1. STI values were obtained from the depolarization […]. LTI values were obtained by comparing the depolarization of puff iv relative to that of puff ii."}, "gypsy moths": {"system": "gypsy moths", "experiment": "Field test of trap catches, Northern Japan 2009 (Example 12)", "type": "in vivo, Lymantria dispar", "details": "(+)-dis 40 μg/lure & compound 40 mg/lure, vs (+)-dis alone", "experimental": "Ten traps were used per treatment. The solvent used to deliver the compounds onto the lures was doubly distilled hexane. The hexane was evaporated prior to packing and shipping the lures. The field test was conducted in 10 replicates in Northern Japan. The test was conducted Aug. 16-18, 2009, in an area where gypsy moths are known to live. […] Traps were arranged randomized, placed on platforms. The experiment was conducted blind. The lures contained 40 μg disparlure/lure, a low dose for a field trial (typically 100 μg-1 mg are used). For each treatment, 10 traps were deployed."}, "[2]": {"system": "male gypsy moth antennae response to pheromone (+)-1 with plant odors", "experiment": "Effect on mixed pheromone/plant odorant stimulus, EAG (Example 8, second objective)", "design": "species or system Lymantria dispar", "experimental": "A second objective for this experiment was to determine whether the oak volatiles, methyl eugenol and 1-hexanol, can enhance the antennal response to (+)-1 and whether the mixed pheromone/plant odorant stimulus can be inhibited by compound 3c{2,3} or DEET. The puff order was: i) air, ii) pure (+)-1 (100 ng), iii) (+)-1 (100 ng) and plant odorant (1 μg for methyl eugenol and 100 μg for 1-hexanol), iv) (+)-1 and plant odorant as in iii+antagonist (100 μg), v) same as in iii. Depolarizations were corrected for the air response as in Eq. 1 and the short-term effects were calculated for puff iii relative to puff ii, and for puff iv relative to puff ii. Long-term effects were calculated for puff v relative to puff iii (for LTI of the mixed pheromone/plant odorant plume) and for puff v relative to puff ii (to determine whether long-term effects of the plant odorant and of the antagonist cancel)."}, "male gypsy moth antenna [3]": {"system": "male gypsy moth antenna", "experiment": "EAG dose response and ratio tests of (+)-disparlure:3c{1,3} (Example 16)", "design": "species or system Lymantria dispar", "details": "(+)-disparlure:compound ratios about 1:300 to about 1:2000 or greater", "experimental": "Dose response and ratio tests were done at each of the following (+)-disparlure concentrations: 1 ng, 10 ng, 50 ng, 100 ng, 500 ng and 1000 ng, the following ratios of (+)-disparlure:3c{1,3} were tested: 1:100, 1:300, 1:500, 1:700, 1:1000, 1:1500 and 1:2000 (FIG. 19)."}, "male gypsy moth antenna [4]": {"system": "male gypsy moth antenna", "experiment": "EAG effects of 3c{1,3} with (+)-disparlure at different ratios (Example 14)", "design": "species or system Lymantria dispar", "details": "for STI (short-term inhibition): mixture relative to first puff of pure (+)-disparlure", "text": "The compound has the following effects in the EAG at the following ratios: […]"}, "moths": {"system": "moths", "experiment": "Simple behavioural tests (films of moths exposed to puffs)", "type": "in vivo, Lymantria dispar", "details": "(+)-disparlure:compound 1:1000 vs pheromone alone"}, "gypsy moth sensillum": {"system": "gypsy moth sensillum", "experiment": "Single sensillum recordings", "design": "species or system Lymantria dispar", "details": "(+)-disparlure and compound mixed 1:1000"}, "[5]": {"details": "odorant racemic disparlure 100 ng"}, "[6]": {"details": "plant synergist 1-hexanol 100 μg"}, "[7]": {"details": "plant synergist methyl eugenol 1 μg"}}, "data": [{"molecule": "CCCOc1ccc(OCC)cc1", "note": "[3c{2,3}, 1-ethoxy-4-propoxy benzene]", "values": [{"measurement": "long-term activity (%)", "setting": "[1]; odorant 1-hexanol 100 μg", "result": "29 ± 18", "unit": "%"}, {"measurement": "short-term activity (%)", "setting": "[1]; odorant 1-hexanol 100 μg", "result": "−34 ± 28", "unit": "%"}, {"measurement": "long-term activity (%)", "setting": "[1]; odorant (−)-disparlure 100 ng", "result": "43 ± 12", "unit": "%"}, {"measurement": "long-term activity (%)", "setting": "[1]; odorant dispar alkene 1 μg", "result": "39 ± 12", "unit": "%"}, {"measurement": "short-term activity (%)", "setting": "[1]; odorant dispar alkene 1 μg", "result": "−244 ± 15", "unit": "%"}, {"measurement": "long-term activity (%)", "setting": "[1]; odorant methyl eugenol 1 μg", "result": "46 ± 24", "unit": "%"}, {"measurement": "long-term activity (%)", "setting": "[1]; [5]", "result": "69 ± 5", "unit": "%"}, {"measurement": "short-term activity (%)", "setting": "[1]; [5]", "result": "−154 ± 45", "unit": "%"}, {"measurement": "trap catches in the field", "setting": "gypsy moths", "result": "enhanced the trap catches significantly"}, {"measurement": "short-term effect with plant synergist + antagonist", "setting": "[2]; (+)-1 100 ng + 1-hexanol 100 μg + antagonist 100 μg", "result": "−99 ± 60 (5)"}, {"measurement": "short-term effect with plant synergist + antagonist", "setting": "[2]; (+)-1 100 ng + methyl eugenol 1 μg + antagonist 100 μg", "result": "−125 ± 95 (4)"}, {"measurement": "long-term effect on (+)-1 response", "setting": "[2]; [6]", "result": "20 ± 18 (5)"}, {"measurement": "long-term effect on the mixed (+)-1/plant odor plumes", "setting": "[2]; [6]", "result": "5 ± 24 (5)"}, {"measurement": "long-term effect on (+)-1 response", "setting": "[2]; [7]", "result": "12 ± 33 (4)"}, {"measurement": "long-term effect on the mixed (+)-1/plant odor plumes", "setting": "[2]; [7]", "result": "11 ± 47 (4)"}]}, {"molecule": "CCCOc1ccc(OC)cc1", "note": "[3c{1,3}, 1-methoxy-4-propoxy-benzene]", "values": [{"measurement": "EAG depolarization shape (in words)", "setting": "male gypsy moth antenna [3]", "result": "increasingly broad depolarizations"}, {"measurement": "STI (short-term inhibition)", "setting": "male gypsy moth antenna [4]; 100 ng (+)-disparlure + 1 μg 3c{1,3}, ratio 1:10 by mass", "result": "28 ± 16 (6)"}, {"measurement": "STI (short-term inhibition)", "setting": "male gypsy moth antenna [4]; 100 ng (+)-disparlure + 10 μg 3c{1,3}, ratio 1:100 by mass", "result": "−2 ± 5 (6)"}, {"measurement": "STI (short-term inhibition)", "setting": "male gypsy moth antenna [4]; 100 ng (+)-disparlure + 100 μg 3c{1,3}, ratio 1:1000 by mass", "result": "48 ± 14 (6)"}, {"measurement": "LTI (long-term inhibition)", "setting": "male gypsy moth antenna [4]; (+)-disparlure puff immediately after last mixed puff (1:1000 ratio), relative to first (+)-disparlure reference puff", "result": "39 ± 12 (6)"}, {"measurement": "behaviour of moths exposed to puffs", "setting": "moths", "result": "excited and violently flap their wings much longer"}, {"measurement": "enhancement of neuronal activity", "setting": "gypsy moth sensillum", "result": "significant"}, {"measurement": "trap catches in the field", "setting": "gypsy moths", "result": "enhanced the trap catches significantly"}]}]}
